# Data taken from ChEMBL document CHEMBL3124891, “Tetrahydroquinoline derivatives as potent and selective factor XIa inhibitors” (J Med Chem, 2014).
# How the values were obtained:
# Oryctolagus cuniculus [1] = assay: Toxicity in rabbit arteriovenous-shunt thrombosis model assessed as increase in bleeding time compound administered as single bolus dose followed by five continuous infusion dose; type: organism-based; conditions: in vivo, iv
# Oryctolagus cuniculus [2] = assay: Antithrombotic activity in rabbit arteriovenous-shunt thrombosis model assessed as inhibition of clot formation compound administered as single bolus dose followed by five continuous infusion dose; type: functional
# Plasma [3] = assay: Anticoagulant activity in New Zealand White rabbit plasma assessed as concentration required to double activated partial thromboplastin time; type: functional, Oryctolagus cuniculus
# [4] = Binding affinity to New Zealand White rabbit plasma kallikrein assessed as release of p-nitroaniline after 10 to 120 mins by spectrophotometric analysis; type: cell-free, Oryctolagus cuniculus
# [5] = Binding affinity to New Zealand White rabbit factor 7a assessed as release of p-nitroaniline after 10 to 120 mins by spectrophotometric analysis; set-up: species or system Oryctolagus cuniculus
# Coagulation factor X [6] = molecular target: T1, Coagulation factor X (Oryctolagus cuniculus, UniProt O19045); assay: Binding affinity to New Zealand White rabbit factor 10a assessed as release of p-nitroaniline after 10 to 120 mins by spectrophotometric analysis
# T1 sequence (O19045 whole entry): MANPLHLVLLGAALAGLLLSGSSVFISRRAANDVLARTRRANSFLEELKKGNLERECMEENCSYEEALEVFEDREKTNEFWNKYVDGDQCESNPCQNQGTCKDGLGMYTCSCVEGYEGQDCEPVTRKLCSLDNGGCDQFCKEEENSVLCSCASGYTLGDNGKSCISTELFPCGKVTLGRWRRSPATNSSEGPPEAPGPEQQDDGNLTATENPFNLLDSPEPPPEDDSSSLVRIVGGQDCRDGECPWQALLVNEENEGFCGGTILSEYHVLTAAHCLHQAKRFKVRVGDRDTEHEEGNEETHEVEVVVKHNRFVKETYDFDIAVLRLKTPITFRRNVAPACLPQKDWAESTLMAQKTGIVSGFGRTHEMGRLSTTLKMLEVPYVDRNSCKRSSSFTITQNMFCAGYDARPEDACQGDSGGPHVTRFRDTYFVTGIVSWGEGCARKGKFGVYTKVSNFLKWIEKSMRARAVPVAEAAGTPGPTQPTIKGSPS
# [7] = Binding affinity to New Zealand White rabbit thrombin assessed as release of p-nitroaniline after 10 to 120 mins by spectrophotometric analysis; set-up: species or system Oryctolagus cuniculus
# [8] = Binding affinity to New Zealand White rabbit factor 11a assessed as release of p-nitroaniline after 10 to 120 mins by spectrophotometric analysis; set-up: species or system Oryctolagus cuniculus
# Plasma [9] = assay: Anticoagulant activity in human plasma assessed as concentration required to inhibit double prothrombin time; type: functional
# Plasma [10] = assay: Anticoagulant activity in human plasma assessed as concentration required to double activated partial thromboplastin time; type: functional
# Coagulation factor IX = Coagulation factor IX (Homo sapiens, UniProt P00740); assay: Binding affinity to human factor 9a assessed as release of p-nitroaniline after 10 to 120 mins by spectrophotometric analysis
# [11] = Binding affinity to human chymotrypsin assessed as release of p-nitroaniline after 10 to 120 mins by spectrophotometric analysis
# Prothrombin = Prothrombin (Homo sapiens, UniProt P00734); assay: Binding affinity to human thrombin assessed as release of p-nitroaniline after 10 to 120 mins by spectrophotometric analysis
# [12] = molecular target: Urokinase-type plasminogen activator (Homo sapiens, UniProt P00749); assay: Binding affinity to human urokinase assessed as release of p-nitroaniline after 10 to 120 mins by spectrophotometric analysis
# [13] = molecular target: Tissue-type plasminogen activator (Homo sapiens, UniProt P00750); assay: Binding affinity to human tPA assessed as release of p-nitroaniline after 10 to 120 mins by spectrophotometric analysis
# Plasminogen = Plasminogen (Homo sapiens, UniProt P00747); assay: Binding affinity to human plasmin assessed as release of p-nitroaniline after 10 to 120 mins by spectrophotometric analysis
# Trypsin = Trypsin (Homo sapiens, UniProt P07477+P07478+P35030); assay: Binding affinity to human trypsin assessed as release of p-nitroaniline after 10 to 120 mins by spectrophotometric analysis; type: protein assay
# [14] = molecular target: Vitamin K-dependent protein C (Homo sapiens, UniProt P04070); assay: Binding affinity to human activated protein C assessed as release of p-nitroaniline after 10 to 120 mins by spectrophotometric analysis
# Plasma kallikrein = Plasma kallikrein (Homo sapiens, UniProt P03952); assay: Binding affinity to human plasma kallikrein assessed as release of p-nitroaniline after 10 to 120 mins by spectrophotometric analysis
# Coagulation factor X [15] = molecular target: Coagulation factor X (Homo sapiens, UniProt P00742); assay: Binding affinity to human factor 10a assessed as release of p-nitroaniline after 10 to 120 mins by spectrophotometric analysis
# Coagulation factor VII = molecular target: T2, Coagulation factor VII (Homo sapiens, UniProt P08709); assay: Binding affinity to human factor 7a assessed as release of p-nitroaniline after 10 to 120 mins by spectrophotometric analysis
# T2 sequence (P08709 whole entry): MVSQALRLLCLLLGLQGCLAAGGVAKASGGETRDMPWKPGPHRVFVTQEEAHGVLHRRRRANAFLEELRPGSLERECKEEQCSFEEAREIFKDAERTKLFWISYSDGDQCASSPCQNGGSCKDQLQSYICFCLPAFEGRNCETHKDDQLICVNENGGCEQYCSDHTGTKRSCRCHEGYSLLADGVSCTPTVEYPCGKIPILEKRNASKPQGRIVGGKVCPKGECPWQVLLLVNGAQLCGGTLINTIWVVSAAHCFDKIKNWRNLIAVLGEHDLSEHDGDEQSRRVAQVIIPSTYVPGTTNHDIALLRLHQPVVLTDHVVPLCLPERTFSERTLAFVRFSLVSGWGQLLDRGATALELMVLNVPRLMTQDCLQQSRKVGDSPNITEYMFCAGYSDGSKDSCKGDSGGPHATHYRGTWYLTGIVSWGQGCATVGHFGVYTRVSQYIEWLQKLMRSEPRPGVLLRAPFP
# Coagulation factor XI = Coagulation factor XI (Homo sapiens, UniProt P03951); assay: Binding affinity to human factor 11a assessed as release of p-nitroaniline after 10 to 120 mins by spectrophotometric analysis
# Coagulation factor XI, sequence (P03951 19-387 limits assumed): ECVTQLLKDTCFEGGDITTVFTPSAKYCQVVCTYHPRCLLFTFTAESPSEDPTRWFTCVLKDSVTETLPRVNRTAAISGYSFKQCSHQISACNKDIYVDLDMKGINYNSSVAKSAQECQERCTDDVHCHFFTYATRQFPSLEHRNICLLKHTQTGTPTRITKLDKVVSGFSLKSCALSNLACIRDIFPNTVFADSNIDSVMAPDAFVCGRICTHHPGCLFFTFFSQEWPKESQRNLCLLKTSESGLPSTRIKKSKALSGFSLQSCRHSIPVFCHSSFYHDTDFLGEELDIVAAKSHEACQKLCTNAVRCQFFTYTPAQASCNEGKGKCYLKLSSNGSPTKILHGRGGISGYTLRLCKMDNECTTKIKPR
# Coagulation factor XI, sequence (P03951 388-625 limits assumed): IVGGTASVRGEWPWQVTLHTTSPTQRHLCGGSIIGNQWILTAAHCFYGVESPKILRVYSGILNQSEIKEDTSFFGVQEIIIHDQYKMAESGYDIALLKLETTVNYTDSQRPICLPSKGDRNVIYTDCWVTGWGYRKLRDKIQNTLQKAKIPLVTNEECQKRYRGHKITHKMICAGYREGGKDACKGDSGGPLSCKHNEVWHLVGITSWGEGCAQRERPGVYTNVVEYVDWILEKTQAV
# Coagulation factor X (Homo sapiens, UniProt P00742), sequence (P00742 41-179 limits assumed): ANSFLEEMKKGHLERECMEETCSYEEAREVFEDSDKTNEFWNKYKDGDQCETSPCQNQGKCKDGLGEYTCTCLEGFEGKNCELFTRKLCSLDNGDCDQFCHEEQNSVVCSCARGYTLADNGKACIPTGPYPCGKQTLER
# Coagulation factor X (Homo sapiens, UniProt P00742), sequence (P00742 235-488 limits assumed): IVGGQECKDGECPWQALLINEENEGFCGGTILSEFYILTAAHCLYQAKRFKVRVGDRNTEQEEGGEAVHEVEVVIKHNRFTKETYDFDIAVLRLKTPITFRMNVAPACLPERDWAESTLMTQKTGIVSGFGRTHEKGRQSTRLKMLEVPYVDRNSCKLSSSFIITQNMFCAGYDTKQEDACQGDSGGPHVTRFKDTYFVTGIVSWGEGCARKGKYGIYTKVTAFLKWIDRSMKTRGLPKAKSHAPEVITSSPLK
# Tissue-type plasminogen activator, sequence (P00750 whole entry): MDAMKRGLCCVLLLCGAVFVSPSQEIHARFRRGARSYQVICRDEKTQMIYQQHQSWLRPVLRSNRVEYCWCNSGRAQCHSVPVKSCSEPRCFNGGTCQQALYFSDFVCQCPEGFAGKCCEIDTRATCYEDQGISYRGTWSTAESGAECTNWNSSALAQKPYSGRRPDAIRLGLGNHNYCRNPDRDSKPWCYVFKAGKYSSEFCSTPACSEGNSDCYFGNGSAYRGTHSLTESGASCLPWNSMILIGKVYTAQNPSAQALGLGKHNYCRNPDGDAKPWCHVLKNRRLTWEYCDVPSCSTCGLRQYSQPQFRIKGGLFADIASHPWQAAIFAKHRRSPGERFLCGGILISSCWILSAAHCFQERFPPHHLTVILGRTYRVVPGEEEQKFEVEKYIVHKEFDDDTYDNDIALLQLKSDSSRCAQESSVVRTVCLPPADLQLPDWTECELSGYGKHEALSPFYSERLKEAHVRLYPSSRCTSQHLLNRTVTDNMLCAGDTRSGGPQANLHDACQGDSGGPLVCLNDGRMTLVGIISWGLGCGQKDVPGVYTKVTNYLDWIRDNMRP
# Coagulation factor IX, sequence (P00740 47-191 limits assumed): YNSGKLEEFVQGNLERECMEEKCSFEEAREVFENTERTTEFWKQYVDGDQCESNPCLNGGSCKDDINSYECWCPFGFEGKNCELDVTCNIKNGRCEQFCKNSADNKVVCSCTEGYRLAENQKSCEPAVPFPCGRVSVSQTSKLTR
# Coagulation factor IX, sequence (P00740 227-461 limits assumed): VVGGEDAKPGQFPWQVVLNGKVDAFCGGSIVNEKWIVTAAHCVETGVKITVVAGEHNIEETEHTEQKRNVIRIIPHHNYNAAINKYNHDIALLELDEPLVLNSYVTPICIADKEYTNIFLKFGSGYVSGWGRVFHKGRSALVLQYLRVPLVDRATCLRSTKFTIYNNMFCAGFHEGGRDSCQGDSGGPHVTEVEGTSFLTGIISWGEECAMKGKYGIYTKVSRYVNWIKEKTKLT
# Vitamin K-dependent protein C, sequence (P04070 43-197 limits assumed): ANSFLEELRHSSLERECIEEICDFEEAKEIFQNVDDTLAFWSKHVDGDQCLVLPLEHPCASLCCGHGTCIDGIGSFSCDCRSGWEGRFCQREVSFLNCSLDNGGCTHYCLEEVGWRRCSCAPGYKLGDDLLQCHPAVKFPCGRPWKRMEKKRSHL
# Vitamin K-dependent protein C, sequence (P04070 212-461 limits assumed): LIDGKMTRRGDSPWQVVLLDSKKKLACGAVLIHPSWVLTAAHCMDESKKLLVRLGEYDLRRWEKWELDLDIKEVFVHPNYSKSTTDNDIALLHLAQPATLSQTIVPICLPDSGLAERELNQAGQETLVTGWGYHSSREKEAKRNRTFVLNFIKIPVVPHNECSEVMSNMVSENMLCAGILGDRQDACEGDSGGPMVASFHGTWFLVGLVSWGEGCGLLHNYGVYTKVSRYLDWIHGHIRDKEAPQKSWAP
# Plasminogen, sequence (P00747 97-580 limits assumed): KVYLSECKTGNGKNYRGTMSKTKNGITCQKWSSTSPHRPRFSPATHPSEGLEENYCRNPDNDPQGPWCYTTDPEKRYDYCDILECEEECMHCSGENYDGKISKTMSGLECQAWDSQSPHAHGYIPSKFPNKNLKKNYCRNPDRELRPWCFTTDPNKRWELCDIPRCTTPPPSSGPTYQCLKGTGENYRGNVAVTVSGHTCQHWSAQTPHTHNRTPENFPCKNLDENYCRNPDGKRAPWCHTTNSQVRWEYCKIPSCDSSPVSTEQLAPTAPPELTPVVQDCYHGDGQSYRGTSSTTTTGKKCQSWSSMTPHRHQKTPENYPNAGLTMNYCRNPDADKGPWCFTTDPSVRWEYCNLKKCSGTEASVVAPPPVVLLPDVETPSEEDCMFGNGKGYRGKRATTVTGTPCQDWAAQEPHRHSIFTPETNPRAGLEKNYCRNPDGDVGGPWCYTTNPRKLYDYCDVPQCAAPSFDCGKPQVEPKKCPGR
# Plasminogen, sequence (P00747 581-810 limits assumed): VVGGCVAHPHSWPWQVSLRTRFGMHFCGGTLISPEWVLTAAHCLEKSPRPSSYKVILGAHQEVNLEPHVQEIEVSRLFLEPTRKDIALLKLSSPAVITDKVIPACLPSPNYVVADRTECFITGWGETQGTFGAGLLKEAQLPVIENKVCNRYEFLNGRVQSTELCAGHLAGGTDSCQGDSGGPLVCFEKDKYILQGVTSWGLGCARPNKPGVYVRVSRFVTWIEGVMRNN
# Plasma kallikrein, sequence (P03952 20-390 limits assumed): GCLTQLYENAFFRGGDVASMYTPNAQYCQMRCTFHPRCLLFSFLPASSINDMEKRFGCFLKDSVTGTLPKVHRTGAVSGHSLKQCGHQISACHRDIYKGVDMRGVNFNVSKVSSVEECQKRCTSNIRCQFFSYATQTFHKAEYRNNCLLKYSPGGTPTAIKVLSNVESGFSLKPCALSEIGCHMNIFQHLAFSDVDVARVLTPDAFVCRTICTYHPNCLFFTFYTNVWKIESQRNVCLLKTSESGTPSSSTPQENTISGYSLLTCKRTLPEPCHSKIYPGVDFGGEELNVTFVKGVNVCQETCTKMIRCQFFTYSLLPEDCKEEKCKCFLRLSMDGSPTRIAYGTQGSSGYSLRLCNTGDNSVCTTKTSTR
# Plasma kallikrein, sequence (P03952 391-638 limits assumed): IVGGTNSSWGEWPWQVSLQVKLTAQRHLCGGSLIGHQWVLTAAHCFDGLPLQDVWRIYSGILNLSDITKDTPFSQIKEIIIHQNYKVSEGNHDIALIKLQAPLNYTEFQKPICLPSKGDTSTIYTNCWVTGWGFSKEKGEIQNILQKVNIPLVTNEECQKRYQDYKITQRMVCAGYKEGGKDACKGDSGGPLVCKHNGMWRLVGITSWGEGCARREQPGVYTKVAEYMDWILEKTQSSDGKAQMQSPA
smiles,measurement,setting,value
"CC(C)CC(=O)Nc1cc(-c2ccc(C(N)=O)cc2C(=O)O)cc(C2CC(C)(c3ccccc3)c3cc(C(=N)N)ccc3N2)c1 (single isomer, unassigned; enantiomer 2)",Activity,Oryctolagus cuniculus [1],Non-toxic
same,ID50,Oryctolagus cuniculus [2],0.95 mg/kg/h
same,EC,Plasma [3],2400 nM
same,Ki,[4],4.6 nM
same,Ki,[5],200 nM
same,Ki,Coagulation factor X [6],3200 nM
same,Ki,[7],7900 nM
same,Ki,[8],0.42 nM
same,IC,Plasma [9],>20 µM
same,EC,Plasma [10],2.2 µM
same,Ki,Coagulation factor IX,> 20000 nM
same,Ki,[11],14000 nM
same,Ki,Prothrombin,12600 nM
same,Ki,[12],2100 nM
same,Ki,[13],1700 nM
same,Ki,Plasminogen,910 nM
same,Ki,Trypsin,740 nM
same,Ki,[14],73 nM
same,Ki,Plasma kallikrein,4.6 nM
same,Ki,Coagulation factor X [15],340 nM
same,Ki,Coagulation factor VII,629 nM
same,Ki,Coagulation factor XI,0.2 nM
